System: MV-4-11 cells
Test: Gene expression microarray analysis (Affymetrix PrimeView) and GSEA
Format: cell-based, human
Parameters: RFU PODN (11730768_x_at) / Fold change /veh PODN (11730768_x_at) / RFU LINC00158 (11744669_a_at) / Fold change /veh LINC00158 (11744669_a_at) / RFU DUSP10 (11751237_a_at) / Fold change /veh DUSP10 (11751237_a_at) / RFU ID3 (11757404_x_at) / Fold change /veh ID3 (11757404_x_at) / RFU PLEKHG5 (11737974_s_at) / Fold change /veh PLEKHG5 (11737974_s_at) / RFU LRRC4B (11730491_at) / Fold change /veh LRRC4B (11730491_at) / RFU GIMAP4 (11747438_a_at) / Fold change /veh GIMAP4 (11747438_a_at) / RFU KRT8 (11758183_x_at) / Fold change /veh KRT8 (11758183_x_at) / RFU CNN1 (11734310_a_at) / Fold change /veh CNN1 (11734310_a_at) / RFU VPS37D (11726825_at) / Fold change /veh VPS37D (11726825_at) / RFU C10orf10 (11716522_x_at) / Fold change /veh C10orf10 (11716522_x_at) / RFU KIR2DL2 /// KIR2DL4 /// KIR2DL5A /// KIR2DL5B /// KIR2DS1 /// KIR2DS2 /// KIR2DS3 /// KIR2DS4 /// KIR3DL3 /// KIR3DL3 /// KIR3DS1 (11738374_at) / Fold change /veh KIR2DL2 /// KIR2DL4 /// KIR2DL5A /// KIR2DL5B /// KIR2DS1 /// KIR2DS2 /// KIR2DS3 /// KIR2DS4 /// KIR3DL3 /// KIR3DL3 /// KIR3DS1 (11738374_at) / RFU C1QL1 (11718748_at) / Fold change /veh C1QL1 (11718748_at) / RFU TMPRSS4 (11747572_a_at) / Fold change /veh TMPRSS4 (11747572_a_at) / RFU HAMP (11756126_x_at) / Fold change /veh HAMP (11756126_x_at) / RFU RNFT2 (11725882_a_at) / Fold change /veh RNFT2 (11725882_a_at) / RFU NR4A2 (11747474_a_at) / Fold change /veh NR4A2 (11747474_a_at) / RFU ABCC12 (11746883_a_at) / Fold change /veh ABCC12 (11746883_a_at) / RFU TMEM136 (11760407_x_at) / Fold change /veh TMEM136 (11760407_x_at) / RFU CLDN22 /// WWC2 (11732394_at) / Fold change /veh CLDN22 /// WWC2 (11732394_at) / RFU HLA-DPB1 (11760878_x_at) / Fold change /veh HLA-DPB1 (11760878_x_at) / RFU SPINT1 (11716480_a_at) / Fold change /veh SPINT1 (11716480_a_at) / RFU GAP43 (11754022_s_at) / Fold change /veh GAP43 (11754022_s_at) / RFU A4GNT (11735810_at) / Fold change /veh A4GNT (11735810_at) / RFU PRB3 (11715151_x_at) / Fold change /veh PRB3 (11715151_x_at) / RFU TUBB4B (11761932_at) / Fold change /veh TUBB4B (11761932_at) / RFU CAPN14 (11732068_a_at) / Fold change /veh CAPN14 (11732068_a_at) / RFU TMCC2 (11721928_a_at) / Fold change /veh TMCC2 (11721928_a_at) / RFU IRGQ (11745062_a_at) / Fold change /veh IRGQ (11745062_a_at) / RFU FAM174B (11720279_a_at) / Fold change /veh FAM174B (11720279_a_at) / RFU TMPRSS4 (11748680_a_at) / Fold change /veh TMPRSS4 (11748680_a_at) / RFU FAM212B (11763350_a_at) / Fold change /veh FAM212B (11763350_a_at) / RFU PLEKHG5 (11743358_a_at) / Fold change /veh PLEKHG5 (11743358_a_at) / RFU ZSCAN30 (11745921_a_at) / Fold change /veh ZSCAN30 (11745921_a_at) / RFU CMKLR1 (11741424_a_at) / Fold change /veh CMKLR1 (11741424_a_at) / RFU LOC101060620 /// MAPK8IP1 (11723275_at) / Fold change /veh LOC101060620 /// MAPK8IP1 (11723275_at) / RFU SPTSSB (11747773_x_at) / Fold change /veh SPTSSB (11747773_x_at) / RFU PRSS12 (11739890_at) / Fold change /veh PRSS12 (11739890_at) / RFU BIN1 (11741810_x_at) / Fold change /veh BIN1 (11741810_x_at) / RFU WNT11 (11732464_a_at) / Fold change /veh WNT11 (11732464_a_at) / RFU C10orf10 (11716521_a_at) / Fold change /veh C10orf10 (11716521_a_at) / RFU C5orf56 (11738089_at) / Fold change /veh C5orf56 (11738089_at) / RFU CYB561 (11721691_x_at) / Fold change /veh CYB561 (11721691_x_at) / RFU ANKRD19P (11752326_a_at) / Fold change /veh ANKRD19P (11752326_a_at) / RFU OR2T12 /// OR2T33 /// OR2T8 (11738714_s_at) / Fold change /veh OR2T12 /// OR2T33 /// OR2T8 (11738714_s_at) / RFU VCAN (11748164_a_at) / Fold change /veh VCAN (11748164_a_at) / RFU JSRP1 (11732532_at) / Fold change /veh JSRP1 (11732532_at) / RFU KRTAP10-11 (11738290_x_at) / Fold change /veh KRTAP10-11 (11738290_x_at) / RFU MYO3A (11730013_a_at) / Fold change /veh MYO3A (11730013_a_at) / RFU EBF3 (11725865_a_at) / Fold change /veh EBF3 (11725865_a_at) / RFU CAMK2N1 (11719241_x_at) / Fold change /veh CAMK2N1 (11719241_x_at) / RFU C5orf56 (11738088_a_at) / Fold change /veh C5orf56 (11738088_a_at) / RFU OLFML3 (11715873_a_at) / Fold change /veh OLFML3 (11715873_a_at) / RFU LOC100653217 /// NTM (11731650_a_at) / Fold change /veh LOC100653217 /// NTM (11731650_a_at) / RFU MAPK11 (11762145_a_at) / Fold change /veh MAPK11 (11762145_a_at) / RFU FIZ1 (11724087_x_at) / Fold change /veh FIZ1 (11724087_x_at) / RFU OASL (11726364_x_at) / Fold change /veh OASL (11726364_x_at) / RFU SOX15 (11748057_x_at) / Fold change /veh SOX15 (11748057_x_at) / RFU CD79A (11719716_a_at) / Fold change /veh CD79A (11719716_a_at) / RFU HIST1H1D (11736915_at) / Fold change /veh HIST1H1D (11736915_at) / RFU CASKIN2 (11723855_a_at) / Fold change /veh CASKIN2 (11723855_a_at) / RFU LOC730098 (11760151_x_at) / Fold change /veh LOC730098 (11760151_x_at) / RFU OR4N2 (11742367_at) / Fold change /veh OR4N2 (11742367_at) / RFU PRRT2 (11749266_a_at) / Fold change /veh PRRT2 (11749266_a_at) / RFU SNX32 (11753110_a_at) / Fold change /veh SNX32 (11753110_a_at) / RFU CDHR5 (11726645_a_at) / Fold change /veh CDHR5 (11726645_a_at) / RFU RCAN1 (11760418_a_at) / Fold change /veh RCAN1 (11760418_a_at) / RFU FAM167A (11723789_a_at) / Fold change /veh FAM167A (11723789_a_at) / RFU FAM26E (11764081_at) / Fold change /veh FAM26E (11764081_at) / RFU ISYNA1 (11749810_s_at) / Fold change /veh ISYNA1 (11749810_s_at) / RFU ACY1 (11761880_at) / Fold change /veh ACY1 (11761880_at) / RFU 11764098_at / Fold change /veh 11764098_at / RFU SAMD14 (11745864_x_at) / Fold change /veh SAMD14 (11745864_x_at) / RFU NPB (11741838_a_at) / Fold change /veh NPB (11741838_a_at) / RFU TMPRSS6 (11731388_a_at) / Fold change /veh TMPRSS6 (11731388_a_at) / RFU KRTAP10-2 (11738614_at) / Fold change /veh KRTAP10-2 (11738614_at) / RFU ARHGAP8 /// PRR5-ARHGAP8 (11727945_x_at) / Fold change /veh ARHGAP8 /// PRR5-ARHGAP8 (11727945_x_at) / RFU KRTAP5-7 /// NADSYN1 (11734609_at) / Fold change /veh KRTAP5-7 /// NADSYN1 (11734609_at) / RFU RASL12 (11751679_a_at) / Fold change /veh RASL12 (11751679_a_at) / RFU CDKN2B (11736163_a_at) / Fold change /veh CDKN2B (11736163_a_at) / RFU PRF1 (11729649_at) / Fold change /veh PRF1 (11729649_at) / RFU, ZNF638 /// ZNF638-IT1 / Fold change vs veh, ZNF638 /// ZNF638-IT1 / RFU, PANK3 / Fold change vs veh, PANK3 / RFU, SH3YL1 / Fold change vs veh, SH3YL1 / RFU, ZEB2 / Fold change vs veh, ZEB2 / RFU, NRIP1 / Fold change vs veh, NRIP1 / RFU, PTTG1IP / Fold change vs veh, PTTG1IP / RFU, CAPN2 / Fold change vs veh, CAPN2 / RFU, MED14 / Fold change vs veh, MED14 / RFU, SNORA58 / Fold change vs veh, SNORA58 / RFU, C1orf63 / Fold change vs veh, C1orf63 / RFU, LRRFIP1 / Fold change vs veh, LRRFIP1 / RFU, NDUFAF7 / Fold change vs veh, NDUFAF7 / RFU, SLC12A2 / Fold change vs veh, SLC12A2 / RFU, IBTK / Fold change vs veh, IBTK / RFU, ESF1 / Fold change vs veh, ESF1 / Fold change vs veh, TMEM50B / RFU, TAOK1 / Fold change vs veh, TAOK1 / RFU, ACBD3 / Fold change vs veh, ACBD3 / RFU, TMA16 / Fold change vs veh, TMA16 / RFU, RWDD3 / Fold change vs veh, RWDD3 / RFU, BCAT1 / Fold change vs veh, BCAT1 / RFU, EDEM3 / Fold change vs veh, EDEM3 / RFU, TMEM33 / Fold change vs veh, TMEM33 / RFU, WDR75 / Fold change vs veh, WDR75 / RFU, AHCTF1 / Fold change vs veh, AHCTF1 / RFU, TFRC / Fold change vs veh, TFRC / RFU, ZDHHC17 / Fold change vs veh, ZDHHC17 / RFU, NOM1 / Fold change vs veh, NOM1 / RFU, ARL8B / Fold change vs veh, ARL8B / RFU, ZBTB11 / Fold change vs veh, ZBTB11 / RFU, TAMM41 / Fold change vs veh, TAMM41 / RFU, KIAA1704 /// LOC100996395 / Fold change vs veh, KIAA1704 /// LOC100996395 / RFU, ING1 / Fold change vs veh, ING1 / RFU, TRMT61B / Fold change vs veh, TRMT61B / RFU, FUBP3 / Fold change vs veh, FUBP3 / RFU, TP53 / Fold change vs veh, TP53 / RFU, TNKS2 / Fold change vs veh, TNKS2 / RFU, ZFP14 / Fold change vs veh, ZFP14 / RFU, ACTR2 / Fold change vs veh, ACTR2 / RFU, PPP3R1 / Fold change vs veh, PPP3R1 / RFU, PIK3R1 / Fold change vs veh, PIK3R1 / RFU, HNRNPA1 / Fold change vs veh, HNRNPA1 / RFU, RNF170 / Fold change vs veh, RNF170 / RFU, ZNF28 / Fold change vs veh, ZNF28 / RFU, RNGTT / Fold change vs veh, RNGTT / RFU, OGT / Fold change vs veh, OGT / RFU, BRD1 / Fold change vs veh, BRD1 / RFU, MARS / Fold change vs veh, MARS / RFU, ZNF655 / Fold change vs veh, ZNF655 / RFU, FAHD1 / Fold change vs veh, FAHD1 / RFU, BDP1 / Fold change vs veh, BDP1 / RFU, LRRCC1 / Fold change vs veh, LRRCC1 / RFU, ARID1A / Fold change vs veh, ARID1A / RFU, ZNF146 / Fold change vs veh, ZNF146 / RFU, ZNF330 / Fold change vs veh, ZNF330 / RFU, GPN3 / Fold change vs veh, GPN3 / RFU, C9orf123 / Fold change vs veh, C9orf123 / RFU, N4BP2L2 / Fold change vs veh, N4BP2L2 / RFU, ARFIP1 / Fold change vs veh, ARFIP1 / RFU, FAM179B / Fold change vs veh, FAM179B / RFU, BCL10 / Fold change vs veh, BCL10 / RFU, UHRF1BP1L / Fold change vs veh, UHRF1BP1L / RFU, BET1 / Fold change vs veh, BET1 / RFU, CNOT2 / Fold change vs veh, CNOT2 / RFU, ZNF268 / Fold change vs veh, ZNF268 / Fold change vs veh, ZNF507 / RFU, DGCR2 / Fold change vs veh, DGCR2 / RFU, WDSUB1 / Fold change vs veh, WDSUB1 / Fold change vs veh, HSP90B1 /// MIR3652 / RFU, ADSS / Fold change vs veh, ADSS / RFU, GK / Fold change vs veh, GK / RFU, ZNF148 / Fold change vs veh, ZNF148 / RFU, TAF9 / Fold change vs veh, TAF9 / RFU, SLC1A5 / Fold change vs veh, SLC1A5 / RFU, SLMO2 / Fold change vs veh, SLMO2 / RFU, ABCC4 / Fold change vs veh, ABCC4 / RFU, LOC101060439 /// RAP1B / Fold change vs veh, LOC101060439 /// RAP1B / RFU, RFX7 / Fold change vs veh, RFX7 / RFU, GTPBP10 / Fold change vs veh, GTPBP10 / RFU, CNEP1R1 / Fold change vs veh, CNEP1R1 / RFU, BIVM-ERCC5 /// ERCC5 / Fold change vs veh, BIVM-ERCC5 /// ERCC5 / RFU, ILF3 / Fold change vs veh, ILF3 / RFU 11762660_at / Fold change /veh 11762660_at / RFU VCAN (11757783_s_at) / Fold change /veh VCAN (11757783_s_at) / RFU DDX43 (11728927_at) / Fold change /veh DDX43 (11728927_at) / RFU KRT8 (11758188_x_at) / Fold change /veh KRT8 (11758188_x_at) / RFU NKD1 (11759106_at) / Fold change /veh NKD1 (11759106_at) / RFU SRD5A1 (11742802_a_at) / Fold change /veh SRD5A1 (11742802_a_at) / RFU TPSAB1 /// TPSB2 (11721975_s_at) / Fold change /veh TPSAB1 /// TPSB2 (11721975_s_at) / RFU GSTM3 (11746129_a_at) / Fold change /veh GSTM3 (11746129_a_at) / RFU IL23R (11737362_x_at) / Fold change /veh IL23R (11737362_x_at) / RFU TMEM51 (11727254_a_at) / Fold change /veh TMEM51 (11727254_a_at) / RFU PIWIL2 (11732686_x_at) / Fold change /veh PIWIL2 (11732686_x_at) / RFU ORM1 (11744905_x_at) / Fold change /veh ORM1 (11744905_x_at) / RFU CCDC152 (11743942_at) / Fold change /veh CCDC152 (11743942_at) / RFU ECM1 (11717891_a_at) / Fold change /veh ECM1 (11717891_a_at) / RFU IL23R (11748794_a_at) / Fold change /veh IL23R (11748794_a_at) / RFU TNFAIP8L3 (11732012_x_at) / Fold change /veh TNFAIP8L3 (11732012_x_at) / RFU MBOAT4 (11741988_at) / Fold change /veh MBOAT4 (11741988_at) / RFU 11764193_at / Fold change /veh 11764193_at / RFU TMEM53 (11763286_at) / Fold change /veh TMEM53 (11763286_at) / RFU MAGEB2 (11727129_at) / Fold change /veh MAGEB2 (11727129_at) / RFU TMEM200A (11744735_a_at) / Fold change /veh TMEM200A (11744735_a_at) / RFU CCDC152 (11751479_a_at) / Fold change /veh CCDC152 (11751479_a_at) / RFU FAM211A (11726209_a_at) / Fold change /veh FAM211A (11726209_a_at) / RFU RGS16 (11746705_a_at) / Fold change /veh RGS16 (11746705_a_at) / RFU VCAN (11755009_s_at) / Fold change /veh VCAN (11755009_s_at) / RFU RHOB (11743442_s_at) / Fold change /veh RHOB (11743442_s_at) / RFU RGS16 (11720943_a_at) / Fold change /veh RGS16 (11720943_a_at) / RFU RGS16 (11720944_at) / Fold change /veh RGS16 (11720944_at) / RFU, VPS4B / Fold change vs veh, VPS4B / RFU, CREB1 / Fold change vs veh, CREB1 / RFU, DNAJC13 / Fold change vs veh, DNAJC13 / RFU, GNAQ / Fold change vs veh, GNAQ / RFU, CDK5R1 / Fold change vs veh, CDK5R1 / RFU, ZRANB3 / Fold change vs veh, ZRANB3 / RFU, CUL4A / Fold change vs veh, CUL4A / RFU, CCNY / Fold change vs veh, CCNY / RFU, UFL1 / Fold change vs veh, UFL1 / RFU, COG3 / Fold change vs veh, COG3 / RFU, DIAPH2 / Fold change vs veh, DIAPH2 / RFU, SKA2 / Fold change vs veh, SKA2 / RFU, AFF3 / Fold change vs veh, AFF3 / RFU, LMF1 / Fold change vs veh, LMF1 / RFU, IPO11 / Fold change vs veh, IPO11 / RFU, DFFB / Fold change vs veh, DFFB / RFU, FOXP1 / Fold change vs veh, FOXP1 / RFU, CARD8 / Fold change vs veh, CARD8 / RFU, STRN3 / Fold change vs veh, STRN3 / RFU, ADK / Fold change vs veh, ADK / RFU, RASSF2 / Fold change vs veh, RASSF2 / RFU, WIPF1 / Fold change vs veh, WIPF1 / RFU, LARP1B / Fold change vs veh, LARP1B / RFU, RASA1 / Fold change vs veh, RASA1 / RFU, RB1 / Fold change vs veh, RB1 / RFU, PPFIA1 / Fold change vs veh, PPFIA1 / RFU, MAT2A / Fold change vs veh, MAT2A / RFU, CCT5 / Fold change vs veh, CCT5 / RFU, WDR92 / Fold change vs veh, WDR92 / RFU, CUX1 / Fold change vs veh, CUX1 / RFU, TTC7A / Fold change vs veh, TTC7A / RFU, TMEM135 / Fold change vs veh, TMEM135 / RFU, DEPTOR / Fold change vs veh, DEPTOR / RFU, CPM / Fold change vs veh, CPM / RFU, DNAJB6 / Fold change vs veh, DNAJB6 / RFU, CACNA2D3 / Fold change vs veh, CACNA2D3 / RFU, DTX4 / Fold change vs veh, DTX4 / RFU, TFCP2 / Fold change vs veh, TFCP2 / RFU, GMCL1 /// GMCL1P1 / Fold change vs veh, GMCL1 /// GMCL1P1 / RFU, AEBP2 / Fold change vs veh, AEBP2 / RFU, SNHG1 /// SNORD22 /// SNORD25 /// SNORD26 /// SNORD27 /// SNORD28 /// SNORD29 /// SNORD31 / Fold change vs veh, SNHG1 /// SNORD22 /// SNORD25 /// SNORD26 /// SNORD27 /// SNORD28 /// SNORD29 /// SNORD31 / Fold change (Aza/veh), C12orf56 (ProbeSet 11735607_a_at) / Fold change (ACY-1035/veh), C12orf56 (ProbeSet 11735607_a_at) / Fold change (Aza/veh), FGFR1OP (ProbeSet 11751329_s_at) / Fold change (ACY-1035/veh), FGFR1OP (ProbeSet 11751329_s_at) / Fold change (Aza/veh), VPS36 (ProbeSet 11739960_a_at) / Fold change (ACY-1035/veh), VPS36 (ProbeSet 11739960_a_at) / RFU SYPL1 (11715823_x_at) / Fold change /veh SYPL1 (11715823_x_at) / RFU IGFBP7 (11715501_s_at) / Fold change /veh IGFBP7 (11715501_s_at) / RFU REEP3 (11722064_at) / Fold change /veh REEP3 (11722064_at) / RFU IGLL1 (11728026_x_at) / Fold change /veh IGLL1 (11728026_x_at): dose or concentration left out as unconfirmed
Conditions: MV-4-11 cells, 48 hours

## Nc1ccc(-c2cccs2)cc1NC(=O)c1ccc2c(c1)cc(C1CC1)n2CCN1CCOCC1 [ACY-1035]
  Fold change /veh ISYNA1 (11749810_s_at): 0.96

— paper PMC5218480 (PLoS ONE, 2017)
